Entries after “also recorded” stand apart in the source; their conditions may differ.
Legend:
HER2 kinase = target: T1, HER2 kinase (Homo sapiens, UniProt P04626); assay: In vitro HER2 kinase inhibition assay (Invitrogen kit PV3366); assay type: biochemical; conditions: HER2 0.20 μg/mL, mean ± SD, read-out: Enzymatic IC50
T1 construct: purchased Invitrogen PV3366
Description: The compounds were tested for HER2 kinase inhibition abilities using an HER2 assay kit (Invitrogen, Carlsbad, CA, USA, PV3366). The kinase kit was obtained from Invitrogen; all compounds were purchased from Thermo Electron Corporation (Walthan, MA, USA). The concentrations of HER2 were set as 0.20 μg/mL. The concentration of selected compounds was set as six gradients (0.0001–10 μM) in DMSO. Firstly, 2.5 μL of ATP solution and 2.5 μL of compound solution was added to the 5.0 μL substrate peptide. Then, the mixture solution on the plate was incubated for 1 h at 25 °C. Next, 5 μL of development solution was added to the well, and the plate was incubated for 1 h at 25 °C. To terminate the reaction, 5 μL of stop reagent was added to plate. The Infinite M100 Pro multi-label reader (Tecan, Männedorf, Switzerland) was used to measure the activity. Graph Pad Prism 5.0 (Graph Pad Software, San Diego, CA, USA) was used to calculate the IC50 values.

[1] = system: HER2-overexpressing BT474 cell line; assay: Cell proliferation inhibition, CCK-8; assay type: cell-based; conditions: Homo sapiens, BT-474; BT474, 48 h, CCK-8, mean ± SD
Description: (§1) All cells were obtained from ATCC (Manassas, VA, USA). The HER2-overexpression SKBR3 cell line and BT474 cell line were cultured in RPMI (Roswell Park Memorial Institute medium) 1640 medium and supplemented with 10% FBS (fetal bovine serum). In addition, 100 U/mL of Penicillin and Streptomycin were added. The cell cultures were maintained at 37 °C in a humidified atmosphere of 5% CO2. Cells were seeded at density 2 × 10^4/mL in 96-well plates per well. The medium was removed after seeding 24 h. The compounds were dissolved in DMSO (dimethyl sulfoxide) and diluted with medium to different concentrations. Then, 20 µL of the selected compounds solution were added in 96-well plates, and incubation continued for 48 h at 37 °C in a humidified atmosphere of 5% CO2. After that, the medium was removed, 90 µL of fresh medium and 10 μL of CCK-8 [54] (Dojindo Molecular Technologies Inc., Kumamoto, Japan) was added to each well and incubated for additional half hour. The activity was measured by microplate reader. Graph Pad Prism 5.0 was used to calculated the IC50 values. The normal breast cells (Hs578Bst) were cultured the same as SKBR3 cells. Cell viability was measured by the CCK-8 assay as previously described.

[2] = system: HER2-overexpressing SKBR3 cell line; assay: Cell proliferation inhibition, CCK-8; assay type: cell-based; conditions: Homo sapiens, SK-BR-3; SKBR3, 48 h, CCK-8, mean ± SD
Description: as §1

[3] = system: normal breast cells (Hs578Bst); assay: Normal breast cell viability, CCK-8; assay type: cell-based; conditions: different concentrations, 24 h of treatment
Description: Three compounds (cell inhibition IC50 values < 50 μM) were further tested on the normal breast cell (Hs578Bst) to study the effect on cell proliferation and thus verify the toxicity of normal cells. CCK-8 (Cell Counting kit-8) assays were utilized to determine the effects of different concentrations of three compounds on normal breast cell viability after 24 h of treatment.
as §1

T1 sequence (P04626 23-1255): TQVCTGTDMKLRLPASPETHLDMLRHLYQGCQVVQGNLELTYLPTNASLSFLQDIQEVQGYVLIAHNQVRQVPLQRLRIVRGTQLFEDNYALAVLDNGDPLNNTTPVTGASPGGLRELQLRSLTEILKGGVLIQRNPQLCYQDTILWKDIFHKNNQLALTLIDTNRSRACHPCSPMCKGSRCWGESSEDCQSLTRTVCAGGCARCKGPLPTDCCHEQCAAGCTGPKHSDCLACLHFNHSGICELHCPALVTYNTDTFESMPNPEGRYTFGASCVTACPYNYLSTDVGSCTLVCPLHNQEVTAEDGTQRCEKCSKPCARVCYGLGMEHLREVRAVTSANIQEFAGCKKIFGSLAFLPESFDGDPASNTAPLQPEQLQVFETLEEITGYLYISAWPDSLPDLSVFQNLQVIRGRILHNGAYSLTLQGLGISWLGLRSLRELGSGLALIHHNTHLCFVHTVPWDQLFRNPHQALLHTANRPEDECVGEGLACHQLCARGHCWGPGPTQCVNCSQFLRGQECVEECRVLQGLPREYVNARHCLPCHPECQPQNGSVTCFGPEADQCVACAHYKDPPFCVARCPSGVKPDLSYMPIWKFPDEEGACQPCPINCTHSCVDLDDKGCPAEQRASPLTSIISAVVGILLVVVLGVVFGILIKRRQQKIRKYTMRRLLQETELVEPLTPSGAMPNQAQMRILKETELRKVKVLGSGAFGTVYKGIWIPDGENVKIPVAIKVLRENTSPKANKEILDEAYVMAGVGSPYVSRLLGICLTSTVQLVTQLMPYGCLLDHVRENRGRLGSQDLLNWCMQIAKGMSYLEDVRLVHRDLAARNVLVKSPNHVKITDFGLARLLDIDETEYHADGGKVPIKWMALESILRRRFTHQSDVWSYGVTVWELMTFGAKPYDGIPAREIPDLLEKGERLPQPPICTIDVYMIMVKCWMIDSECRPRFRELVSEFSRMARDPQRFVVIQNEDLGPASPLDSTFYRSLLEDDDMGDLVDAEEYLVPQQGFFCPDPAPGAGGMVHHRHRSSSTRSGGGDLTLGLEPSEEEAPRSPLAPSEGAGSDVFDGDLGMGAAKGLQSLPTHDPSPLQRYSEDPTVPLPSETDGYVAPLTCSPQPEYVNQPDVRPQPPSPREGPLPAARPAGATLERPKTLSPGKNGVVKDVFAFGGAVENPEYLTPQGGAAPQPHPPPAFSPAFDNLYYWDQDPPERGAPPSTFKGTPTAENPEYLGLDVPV

Row | SMILES | IC50 (HER2 kinase) [µM] | IC50 [1] [µM] | IC50 [2] [µM] | cytotoxicity against normal breast cells (cell viability) [3] | cytotoxicity against normal breast cells (cell viability) ([3]; listed as ZINC31178641)
1 | CC(C)=CCC/C(C)=C/Cc1c(O)cc2c(c1O)C(=O)[C@H](O)[C@@H](c1ccc(O)cc1)O2 [ZINC13378641, (2R,3R)-6-[(2E)-3,7-dimethylocta-2,6-dienyl]-3,5,7-trihydroxy-2-(4-hydroxyphenyl)chroman-4-one] | 3.71 ± 0.03 | 18.6 ± 2.06 | 26.5 ± 1.62 | little cytotoxicity | low cytotoxicity
2 | CC(C)=CCC/C(C)=C/Cc1c(O)cc2c(c1O)C(=O)CC(c1ccc(O)c(O)c1)O2 (stereo not drawn) [ZINC15122021, 2-(3,4-dihydroxyphenyl)-6-[(2E)-3,7-dimethylocta-2,6-dienyl]-5,7-dihydroxy-2,3-dihydrochromen-4-one] | 0.18 ± 0.002 | 4.11 ± 0.95 | 1.22 ± 0.05 | little cytotoxicity; also recorded: low cytotoxicity | –
3 | CC(C)=CC[C@@H](O)/C(C)=C/Cc1cc(C(=O)O)cc(C/C=C(\C)CO)c1O [ZINC31166919, 4-hydroxy-3-[(2E,4R)-4-hydroxy-3,7-dimethyl-octa-2,6-dienyl]-5-[(E)-4-hydroxy-3-methyl-but-2-enyl]be] | 2.63 ± 0.03 | 6.78 ± 0.68 | 8.61 ± 0.45 | slightly enhanced cytotoxicity with increase of concentration | –

Now from value to compound, other results behind:

Row | IC50 (HER2 kinase) [µM] | IC50 [1] [µM] | IC50 [2] [µM] | SMILES | cytotoxicity against normal breast cells (cell viability) [3] | cytotoxicity against normal breast cells (cell viability) ([3]; listed as ZINC31178641)
4 | > 10 | > 50 | > 50 | O=C(O)c1cccc(C(=O)CC[C@@H]2O[C@@H](n3cnc4c(=O)[nH]cnc43)[C@@H](O)[C@H]2O)c1 [ZINC35456515, 3-[3-[(2S,3R,4S,5R)-3,4-dihydroxy-5-(6-hydroxypurin-9-yl)tetrahydrofuran-2-yl]propanoyl]benzoic] | – | –
5 | 9.18 ± 0.01 | > 50 | > 50 | C/C(=C\Cc1cc(C(=O)O)cc(CC[C@H](C)C(=O)/C=C/C(C)(C)O)c1O)CO [ZINC49181256, 4-hydroxy-3-[(E,3S)-7-hydroxy-3,7-dimethyl-4-oxo-oct-5-enyl]-5-[(E)-4-hydroxy-3-methyl-but-2-enyl]be] | – | –
6 | – | 0.45 ± 0.03 | 0.38 ± 0.02 | CS(=O)(=O)CCNCc1ccc(-c2ccc3ncnc(Nc4ccc(OCc5cccc(F)c5)c(Cl)c4)c3c2)o1 [lapatinib, Lapatinib, reference compound] | – | –
